The data set addresses ATP-dependent translocase ABCB1 (Homo sapiens, UniProt P08183). The data set can be described thus: TP_TRANSPORTER: transepithelial transport in Caco-2 cells. Type of data set: functional, cell-based. Background: Caco-2 cells form a polarised layer with tight junctions and transporters.

For two compounds, Activity results are on record in ChEMBL document CHEMBL2074494 (Biopharm Drug Dispos, 2004).

ATP-dependent translocase ABCB1, sequence (P08183 whole entry): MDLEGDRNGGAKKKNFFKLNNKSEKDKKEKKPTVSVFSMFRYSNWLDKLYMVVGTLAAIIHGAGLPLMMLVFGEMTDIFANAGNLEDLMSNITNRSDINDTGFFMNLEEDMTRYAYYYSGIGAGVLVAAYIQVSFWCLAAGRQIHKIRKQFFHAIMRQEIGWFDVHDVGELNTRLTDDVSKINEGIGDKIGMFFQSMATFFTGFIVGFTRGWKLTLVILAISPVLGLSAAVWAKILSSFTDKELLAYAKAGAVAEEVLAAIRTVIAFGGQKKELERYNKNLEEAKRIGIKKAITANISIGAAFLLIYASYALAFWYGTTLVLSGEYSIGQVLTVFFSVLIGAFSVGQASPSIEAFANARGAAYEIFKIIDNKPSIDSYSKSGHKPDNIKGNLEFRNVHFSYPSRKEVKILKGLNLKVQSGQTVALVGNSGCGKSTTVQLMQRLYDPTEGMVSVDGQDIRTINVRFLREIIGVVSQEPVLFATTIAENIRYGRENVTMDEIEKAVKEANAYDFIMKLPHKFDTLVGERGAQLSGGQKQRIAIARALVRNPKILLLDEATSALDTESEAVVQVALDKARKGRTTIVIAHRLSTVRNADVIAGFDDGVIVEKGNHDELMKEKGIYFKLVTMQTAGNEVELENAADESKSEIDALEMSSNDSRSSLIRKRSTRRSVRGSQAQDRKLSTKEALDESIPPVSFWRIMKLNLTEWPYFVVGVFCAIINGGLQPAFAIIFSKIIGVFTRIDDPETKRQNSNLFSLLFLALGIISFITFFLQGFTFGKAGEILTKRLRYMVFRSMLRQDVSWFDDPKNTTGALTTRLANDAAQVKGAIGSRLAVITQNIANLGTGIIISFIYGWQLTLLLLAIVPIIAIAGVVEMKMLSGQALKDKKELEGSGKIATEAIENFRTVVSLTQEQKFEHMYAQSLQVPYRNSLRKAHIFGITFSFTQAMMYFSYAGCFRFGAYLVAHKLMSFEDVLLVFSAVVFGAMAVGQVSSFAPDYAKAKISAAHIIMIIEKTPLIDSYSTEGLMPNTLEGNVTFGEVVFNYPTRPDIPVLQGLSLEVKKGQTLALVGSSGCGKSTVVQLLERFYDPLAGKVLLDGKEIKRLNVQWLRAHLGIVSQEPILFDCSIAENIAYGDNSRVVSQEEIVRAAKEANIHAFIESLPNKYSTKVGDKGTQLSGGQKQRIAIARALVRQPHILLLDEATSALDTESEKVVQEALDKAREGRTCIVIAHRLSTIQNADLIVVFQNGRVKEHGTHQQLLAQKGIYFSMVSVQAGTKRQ

Turning to `CC/C(=C(\c1ccccc1)c1ccc(OCCN)cc1)c1ccccc1` [DESMETHYL TAMOXIFEN], the Activity entry is “is not a substrate [-]”.

On to `CCC(=C(c1ccc(O)cc1)c1ccc(OCCN(C)C)cc1)c1ccccc1`, for which the Activity result is “is not a substrate [-]”.
